Laboratory results published in PMC9645260, “Small-molecule inhibitors of P-Rex guanine-nucleotide exchange factors” (Small GTPases, 2022).

Test system: primary mouse neutrophils
Assay: Neutrophil ROS production, PMA-stimulated
Format: cell-based
Conditions: 1 µM, 500 nM PMA
Procedure: Prex^−/− mice (Prex1^−/−Prex2^−/−) with general P-Rex deficiency were described previously and were compared to Prex^+/+ (Prex1^+/+Prex2^+/+) control mice on the same genetic background (C57Bl6/129Ola backcrossed seven times to C57Bl6). Mice were group-housed (up to 5) under specific opportunistic pathogen-free isolator conditions in Babraham’s small animal barrier facility that uses 12 h light/dark cycles with dusk and dawn settings, and were fed chow diet and water ad libitum. Mice from both sexes were used for experiments, at young-adult age (between 8 and 14 weeks), and were sex- and age-matched between genotypes within experiments. […]
Mature primary neutrophils were isolated from the bone marrow of age- and sex-matched Prex^+/+ and Prex^−/− mice freshly each day at 4°C, using Percoll^Plus (GE Healthcare) gradient, as described, using endotoxin-free media throughout. Isolated neutrophils were 70–90% pure, as assessed by KwikDiff staining of cytospins. ROS production was measured by real-time chemiluminescence assay as described, except that neutrophils were incubated with PREX-in1 before the assay. […] Real-time ROS production was recorded in a Berthold MicroLumat Plus luminometer (Berthold Technologies) at 37°C, for 2.5 min with fMLP stimulation or for 10 min with PMA stimulation. […]

`COc1ccc(-c2[nH]nc3c2C(c2ccc(-c4ccc(Cl)cc4)o2)C(C#N)=C(N)O3)cc1` (stereo not shown) [PREX-in1, 6-amino-4-[5-(4-chlorophenyl)-2-furyl]-3-(4-methoxyphenyl)-2,4-dihydropyrano[2,3-c]pyrazole-5-carbonitrile] was tested, and the “effect on PMA-induced ROS response” value was “unaffected”.
